Positions count from the first letter of the chain named.
Assays:
[1] = target: T1, Muscarinic acetylcholine receptor M1 (Homo sapiens, UniProt P11229); assay: Positive allosteric modulation of human muscarinic acetylcholine M1 receptor expressed in CHO cells assessed as potentiation of acetylcholine-induced calcium mobilization; assay type: functional, cell-based
T1 sequence (P11229 whole entry): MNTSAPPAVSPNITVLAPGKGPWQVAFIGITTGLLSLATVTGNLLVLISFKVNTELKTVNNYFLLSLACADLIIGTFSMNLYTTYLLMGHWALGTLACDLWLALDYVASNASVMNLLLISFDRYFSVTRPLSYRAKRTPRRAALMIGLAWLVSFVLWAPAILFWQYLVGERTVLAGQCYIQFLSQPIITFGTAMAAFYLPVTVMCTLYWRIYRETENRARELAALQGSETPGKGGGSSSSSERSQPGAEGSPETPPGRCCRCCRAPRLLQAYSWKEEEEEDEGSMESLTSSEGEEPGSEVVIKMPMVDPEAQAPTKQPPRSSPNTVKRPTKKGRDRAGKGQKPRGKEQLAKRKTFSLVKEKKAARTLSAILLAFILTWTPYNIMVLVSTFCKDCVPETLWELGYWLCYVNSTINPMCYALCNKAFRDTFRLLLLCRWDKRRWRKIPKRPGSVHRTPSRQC

[2] = target: T2, Muscarinic acetylcholine receptor M1 (Homo sapiens) (UniProt P11229); assay: Positive allosteric modulation of human muscarinic acetylcholine M1 receptor expressed in CHO cells assessed as potentiation of acetylcholine-induced calcium mobilization relative to acetylcholine; assay type: functional, cell-based
T2 sequence (whole entry): T1 sequence (P11229 whole entry)

[3] = Fraction unbound in plasma (unknown origin); assay type: ADME, cell-free
[4] = target: T1, Muscarinic acetylcholine receptor M1; assay: Positive allosteric modulation of human muscarinic acetylcholine M1 receptor expressed in CHO-NFAT cells assessed as potentiation of acetylcholine-induced calcium mobilization after 4 hrs by CCF4-AM dye-based assay; assay type: functional, cell-based
[5] = Brain to plasma permeability coefficient, Kp of compound in Sprague-Dawley rat at 0.20 to 0.25 mg/kg administered as iv cassette dose measured at 0.25 hrs post dose; assay type: ADME, organism-based; conditions: for Kp at 0.25 h: Sprague-Dawley, brain and plasma; for Kp: brain, 0.25 h
Rattus norvegicus = assay: Cognitive enhancing effect in po dosed rat by novel object recognition test; assay type: functional; conditions: read-out: MED
[6] = target: T3, Muscarinic acetylcholine receptor M1 (Rattus norvegicus, UniProt P08482); assay: Positive allosteric modulation of rat muscarinic acetylcholine M1 receptor; assay type: functional
T3 sequence (P08482 whole entry): T1 sequence (P11229 whole entry) with A5V, T254S, P309S, R320K, A337G, I413V

[7] = target: T1, Muscarinic acetylcholine receptor M1; assay: Positive allosteric modulation of human muscarinic acetylcholine M1 receptor; assay type: functional
[8] = Fraction unbound in rat plasma; assay type: ADME, cell-free
[9] = Fraction unbound in human plasma; assay type: ADME, cell-free
[10] = Brain to plasma permeability coefficient, Kp of compound in mouse; assay type: ADME

SMILES | EC50 ([1]; read-out: EC50) | %max [2] | also measured
O=C(N[C@H]1CCCC[C@@H]1O)C1CN(Cc2ccc(C(F)(F)F)nc2)c2ccccc2O1 (some centres not stated) | 3700 nM | 84% | –
O=C(N[C@H]1CCCC[C@@H]1O)C1CN(Cc2ccc(-n3cccc3)nc2)c2ccccc2O1 (some centres not stated) | 500 nM | 94% | –
O=C(N[C@H]1CCCC[C@@H]1O)C1CN(Cc2ccc(-n3cccn3)cc2)c2cc(Cl)ccc2O1 (mixture of isomers) | 2800 nM | 86% | Fu [3]: < 0.001
O=C(N[C@H]1CCCCC1=O)C1CN(Cc2ccc(-n3cccn3)cc2)c2ccccc2O1 (some centres not stated) | 2700 nM | 78% | –
O=C(N[C@H]1CCCC[C@@H]1O)C1CN(Cc2ccc(-n3ccnc3)nc2)c2ccccc2O1 (some centres not stated) | 290 nM | 87% | –
Cc1ccc(Cc2cc3c(=O)n([C@H]4CCCC[C@@H]4O)cnc3c3ccccc23)cn1 [MK-7622] | – | – | EC50 [4]: < 100 nM
O=C(N[C@H]1CCCC[C@@H]1O)C1CN(Cc2ccc(Br)nc2)c2ccccc2O1 (some centres not stated) | 1200 nM | 91% | EC50 ([1]; read-out: pEC50 (converted)): 1070 nM
C=Cc1ccc(CN2CC(C(=O)N[C@H]3CCCC[C@@H]3O)Oc3ccccc32)cn1 (some centres not stated) | 700 nM | 89% | –
O=C(Nc1ncccc1F)C1CN(Cc2ccc(-n3cccn3)cc2)c2ccccc2O1 (configuration not stated) | 2300 nM | 81% | –
O=C(N[C@H]1CCCC[C@@H]1O)C1CN(Cc2ccc(-n3cccn3)nc2)c2ccccc2O1 (mixture of isomers) | 780 nM | 92% | Fu [3]: < 0.001; EC50 ([1]; read-out: pEC50 (converted)): 708 nM
O=C(Nc1ncccc1O)C1CN(Cc2ccc(-n3cccn3)cc2)c2ccccc2O1 (configuration not stated) | 710 nM | 75% | Kp at 0.25 h [5]: 0.11; EC50 ([1]; read-out: pEC50 (converted)): 692 nM
O=C(N[C@H]1CCCC[C@@H]1O)[C@H]1CN(Cc2ccc(-n3cccn3)cc2)c2ccccc2O1 | – | – | minimal effective dose (Rattus norvegicus): 3 mg/kg; EC50 [6]: 250 nM; EC50 [7]: 250 nM
O=C(N[C@H]1CCCC[C@@H]1O)C1CN(Cc2ccc(Cl)nc2)c2ccccc2O1 (some centres not stated) | 7600 nM | 73% | EC50 ([1]; read-out: pEC50 (converted)): 7080 nM
O=C(N[C@H]1CCCC[C@@H]1O)C1Cc2ccccc2N(Cc2ccc(-n3cccn3)cc2)C1 (mixture of isomers) | 1400 nM | 75% | –
O=C(N[C@H]1CCCC[C@@H]1O)C1CN(Cc2ccc(-n3cccn3)cc2)c2cc(F)ccc2O1 (some centres not stated) | 320 nM | 88% | Kp [5]: 0.3 to 0.4; fraction unbound [8]: < 0.01; EC50 ([1]; read-out: pEC50 (converted)): 309 nM; fraction unbound [9]: < 0.01
O=C(N[C@H]1CCCC[C@@H]1O)C1CN(Cc2ccc(-n3cccc3)cc2)c2ccccc2O1 (mixture of isomers) | 2100 nM | 81% | Fu [3]: < 0.001
CC1(C(=O)N[C@H]2CCCC[C@@H]2O)CN(Cc2ccc(-n3cccn3)cc2)c2ccccc2O1 (mixture of isomers) | 7300 nM | 61% | –
Cn1cc(-c2ccc(CN3CC(C(=O)N[C@H]4CCCC[C@@H]4O)Oc4ccccc43)cn2)cn1 (some centres not stated) | 220 nM | 84% | –
Cc1ccc(CN2CC(C(=O)N[C@H]3CCCC[C@@H]3O)Oc3ccccc32)cn1 (some centres not stated) | 850 nM | 85% | EC50 ([1]; read-out: pEC50 (converted)): 813 nM

SMILES | EC50 ([1]; read-out: EC50) | %max [2] | also measured
O=C(N[C@H]1CCOC[C@@H]1O)C1CN(Cc2ccc(-n3cccn3)cc2)c2ccccc2O1 (some centres not stated) | 190 nM | 91% | Kp at 0.25 h [5]: 0.08
O=C(N[C@H]1CCCC[C@@H]1O)C1CN(Cc2ccc(-n3cccn3)cc2)c2c(F)cccc2O1 (some centres not stated) | 3180 to 3200 nM | 76% | Kp [5]: 0.3 to 0.4; fraction unbound [8]: < 0.01; EC50 ([1]; read-out: pEC50 (converted)): 3090 nM; fraction unbound [9]: < 0.01
O=C(NC1CCCCC1)C1CN(Cc2ccc(-n3cccn3)cc2)c2ccccc2O1 (configuration not stated) | > 10000 nM | 35% | Kp at 0.25 h [5]: 1.1
O=C(N[C@H]1CCCC[C@@H]1O)C1CN(Cc2ccc(-n3cccn3)cc2F)c2ccccc2O1 (mixture of isomers) | 1600 nM | 88% | Fu [3]: < 0.001
CC(O)(CNC(=O)C1CN(Cc2ccc(-n3cccn3)cc2)c2ccccc2O1)C1CC1 (configuration not stated) | 1900 nM | 80% | –
Cn1nccc1-c1ccc(CN2CC(C(=O)N[C@H]3CCCC[C@@H]3O)Oc3ccccc32)cn1 (some centres not stated) | 1300 nM | 94% | –
Cc1ccn(-c2ccc(CN3CC(C(=O)N[C@H]4CCCC[C@@H]4O)Oc4ccccc43)cn2)n1 (some centres not stated) | 670 nM | 91% | –
NC1CCCCC1NC(=O)C1CN(Cc2ccc(-n3cccn3)cc2)c2ccccc2O1 (configuration not stated) | 2300 nM | 62% | –
O=C(N[C@H]1CCCC[C@@H]1O)C1CN(Cc2ccc(-n3cccn3)cc2)c2ccc(F)cc2O1 (some centres not stated) | 2200 nM | 80% | Kp [5]: 0.3 to 0.4; fraction unbound [8]: < 0.01; fraction unbound [9]: < 0.01
O=C(N[C@H]1CCCC[C@@H]1O)C1CN(Cc2ccc(C3CC3)nc2)c2ccccc2O1 (some centres not stated) | 2500 nM | 90% | EC50 ([1]; read-out: pEC50 (converted)): 2240 nM
O=C(NC1CCOCC1)C1CN(Cc2ccc(-n3cccn3)cc2)c2ccccc2O1 (configuration not stated) | 6600 nM | 69% | Kp at 0.25 h [5]: 1
COc1cccnc1NC(=O)C1CN(Cc2ccc(-n3cccn3)cc2)c2ccccc2O1 (configuration not stated) | 1700 nM | 80% | EC50 ([1]; read-out: pEC50 (converted)): 1620 nM
O=C(NCC(O)C(F)(F)F)C1CN(Cc2ccc(-n3cccn3)cc2)c2ccccc2O1 (configuration not stated) | 2200 nM | 78% | –
O=C(N[C@H]1CCC[C@@H]1O)C1CN(Cc2ccc(-n3cccn3)cc2)c2ccccc2O1 (some centres not stated) | 1200 nM | 77% | Kp at 0.25 h [5]: 0.09
CC(C)(O)CNC(=O)C1CN(Cc2ccc(-n3cccn3)cc2)c2ccccc2O1 (configuration not stated) | 6400 nM | 60% | EC50 ([1]; read-out: pEC50 (converted)): 5890 nM
O=C(N[C@H]1CCCC[C@@H]1O)C1CN(Cc2ccc(-n3cccn3)cc2)c2ccccc2O1 (mixture of isomers) | 920 nM | 77% | Kp [5]: 0.17; Fu [8]: > 0.11; Kp [10]: 0.7; fraction unbound [9]: ≥ 0.11
O=C(N[C@H]1CCCC[C@@H]1O)C1CN(Cc2ccc(-n3cccn3)cc2)c2cccc(F)c2O1 (some centres not stated) | 140 nM | 89% | Kp [5]: 0.3 to 0.4
CN(C)c1ccc(CN2CC(C(=O)N[C@H]3CCCC[C@@H]3O)Oc3ccccc32)cn1 (some centres not stated) | 3800 nM | 89% | –

— ChEMBL document CHEMBL4118174, “The discovery of VU0486846: steep SAR from a series of M1 PAMs based on a novel benzomorpholine core” (Bioorg Med Chem Lett, 2018)
